The source of these data is patent US4196288A, “Ergoline derivatives and a process for their preparation” (Societa Farmaceutici Italia S.p.A., priority 1976, dated 1980).

Data set [1] in a line: Emetic activity in dogs (intravenous). The note with it: dog, in vivo, male beagle dogs, i.v., observed for 1 hour after treatment, read-out: ≅ED50, emetic activity in dogs. The text has this:
The emetic activity of some of the compounds was investigated by intravenous administration to male beagle dogs weighing 15-20 kg. […] Five to six animals per dose were employed for the ED50 evaluation.

The subject of data set [2] is nidation. The experiment in a line: Nidation inhibition test in rats (anti-prolactin activity; absence of implantation sites). It is filed as in vivo, rat (Sprague-Dowley). The settings on record: Rattus norvegicus. The text has this:
Prolactin is considered to be the only hypophysial hormone involved in the maintenance of the first part of pregnancy in rats.
For the assessment of the anti-prolactin activity, the nidation inhibition test (M.C. Shelesnyak, Amer. J. Physiol., 180, 47, 1955) in rats was employed. For the ergoline derivatives this test is considered to be correlated with prolactin-inhibiting ability (K. Rezabek et al., J. Pharm. Sci., 64, 1045, 1976).
Adult female rats, of the Sprague-Dowley strain, in proestrus were mated with fertile males and their vaginal smears were examined the next morning. The presence of spermatozoa was considered evidence of impregnation and onset of pregnancy (day 1).
The compounds to be tested were administered orally or subcutaneously to groups of from six to eight rats on day 3. On day 14, the animals were sacrificed and the uterus was examined for the presence of implantation sites. The absence of implantation sites was taken as the criterion of anti-prolactin activity.
Several doses were tested for the ED50 evaluation.
As the reference standard Bromocriptine was used, this being well known both for its anti-nidation (E. Fluckiger and H. R. Wagner, Experientia, 24, 1130, 1968) and its anti-prolactin activity (C. L. Brooks and C. W. Welsch, Proc. Soc. Exp. Bio. Med., 146, 863, 1974).

Where [3] appears, read: sc, rats, s.c., dosed on day 3, uterus examined on day 14, read-out: ≅ED50, nidation inhibition in rats (subcutaneous treatment).
Where [4] appears, read: rats, os (oral), dosed on day 3, uterus examined on day 14, read-out: ≅ED50, nidation inhibition in rats (oral treatment).

Broadly, the ED50 is the dose that gives a 50% effect, or the effect in half of the subjects.

Each structure is given as a SMILES string. Like-named read-outs stand apart in the source and are kept apart here.

For `CN1CC(C(=O)CO)C[C@@H]2c3cccc4[nH]cc(c34)C[C@H]21` (stereo partly shown) [Compound 615, 6-Methyl-8-hydroxyacetylergoline], the TD50 at 1 h in data set [1] was approximately 0.025 mg/kg. Also, the 50% effective dose (ED50) in data set [2] (setting [3]) and in data set [2] (setting [4]) was approximately 0.5 mg/kg throughout.

Take `CN1CC(C(=O)COC(=O)c2ccncc2)C[C@@H]2c3cccc4[nH]cc(c34)C[C@H]21` (stereo partly shown) [Compound 991, 8-Isonicotinoyloxyacetyl-6-methylergoline]: the ED50 in data set [2] (setting [3]) and in data set [2] (setting [4]) was approximately 2 mg/kg in each case.

`CN1CC(C(=O)COC(=O)C(C)(C)C)C[C@@H]2c3cccc4[nH]cc(c34)C[C@H]21` (stereo partly shown) [Compound 1011, 8-Pivaloyloxyacetyl-6-methylergoline]: the ED50 is approximately 1 mg/kg in data set [2] (setting [3]) and approximately 0.5 mg/kg in data set [2] (setting [4]).

With `COc1cccc(OC)c1C(=O)OCC(=O)C1C[C@@H]2c3cccc4[nH]cc(c34)C[C@H]2N(C)C1` (stereo partly shown) [Compound 1013, 8-(2',6'-dimethoxybenzoyloxyacetyl)-6-methylergoline], the values for the ED50 in data set [2] (setting [3]) and in data set [2] (setting [4]) were approximately 1 mg/kg and approximately 0.5 mg/kg, respectively.

On to `CN1CC(C(=O)CN2CCCCC2)C[C@@H]2c3cccc4[nH]cc(c34)C[C@H]21` (stereo partly shown) [Compound 611, 6-Methyl-8-piperidinoacetylergoline], for which the ED50 in data set [2] (setting [3]) is approximately 1 mg/kg; in data set [2] (setting [4]), approximately 0.5 mg/kg.

With `CCCCCC(=O)OCC(=O)C1C[C@@H]2c3cccc4[nH]cc(c34)C[C@H]2N(C)C1` (stereo partly shown) [Compound 992, 8-Caproyloxyacetyl-6-methylergoline], the ED50 was approximately 1 mg/kg in data set [2] (setting [3]) and approximately 0.5 mg/kg in data set [2] (setting [4]).

Consider `CN1CC(C(=O)COC(=O)c2ccccc2)C[C@@H]2c3cccc4[nH]cc(c34)C[C@H]21` (stereo partly shown) [Compound 1000, 8-Benzoyloxyacetyl-6-methylergoline], for which the figures for the ED50 in data set [2] (setting [3]) and in data set [2] (setting [4]) were approximately 1 mg/kg and approximately 0.5 mg/kg, respectively.

For `CC(C)C[C@H]1C(=O)N2CCC[C@H]2[C@]2(O)O[C@](NC(=O)[C@@H]3C=C4c5cccc6[nH]c(Br)c(c56)C[C@H]4N(C)C3)(C(C)C)C(=O)N12` [Bromocriptine, reference compound], in data set [1], the TD50 at 1 h was approximately 0.007 mg/kg. The ED50 in data set [2] (po, read-out: ≅ED50, nidation inhibition in rats (oral treatment)) is approximately 8 mg/kg; in data set [2] (sc, read-out: ≅ED50, nidation inhibition in rats (subcutaneous treatment)) it was approximately 1 mg/kg.

In the case of `CN1CCN(CC(=O)C2C[C@@H]3c4cccc5[nH]cc(c45)C[C@H]3N(C)C2)CC1` (stereo partly shown) [Compound 1014, 6-Methyl-8-(4'-methylpiperazino)acetylergoline], the median effective dose (ED50) in data set [2] (setting [3]) and in data set [2] (setting [4]) was approximately 1 mg/kg in each case.

Consider `CN1CC(C(=O)COC(=O)c2cncc(Br)c2)C[C@@H]2c3cccc4[nH]cc(c34)C[C@H]21` (stereo partly shown) [Compound 613, 6-Methyl-8-(5'-bromonicotinoyloxyacetyl)ergoline], for which the TD50 at 1 h in data set [1] was approximately 0.045 mg/kg. Further, the 50% effective dose (ED50) in data set [2] (setting [3]) and in data set [2] (setting [4]) was approximately 0.5 mg/kg in each case.

Take `CN1CC(C(=O)COC(=O)c2cccnc2)C[C@@H]2c3cccc4[nH]cc(c34)C[C@H]21` (stereo partly shown) [Compound 1012, 8-Nicotinoyloxyacetyl-6-methylergoline]: the ED50 in data set [2] (setting [3]) and in data set [2] (setting [4]) was approximately 1 mg/kg throughout.
